Test results published in publication PMC3206020, “Analogous Mechanisms of Resistance to Benzothiazinones and Dinitrobenzamides in Mycobacterium smegmatis” (PLoS ONE, 2011).

Key:
[1] = molecular target: T1, NfnB (Mycolicibacterium smegmatis, UniProt A0R6D0); test: LC/MS/MS detection of conversion of DNB1 to its hydroxylamine by purified NfnB; type: biochemical
T1 construct: purified NfnB protein

[2] = molecular target: T2, DprE1 (MSMEG_6382) (Mycolicibacterium smegmatis, UniProt A0R607); test: steady-state fluorescence titration (enzyme-bound FAD fluorescence); type: binding
T2 construct: recombinant DprE1 expressed as N-terminal six-histidine and thioredoxin fusion (pET-32b), digested with PreScission Protease

Structure (SMILES) | LC/MS/MS detection of conversion of DNB1 to its hydroxylamine by purified NfnB [1] | Kd [2] [µM]
COc1ccc(OCCNC(=O)c2cc([N+](=O)[O-])cc([N+](=O)[O-])c2)cc1 [DNB1, N-(2-(4-methoxyphenoxy)ethyl)-3,5-dinitrobenzamide] | NfnB was able to convert DNB1 into the corresponding hydroxyl amine-derivative in the presence of NADPH | 7.3 ± 0.8
O=C(NCCOCc1cccc(Cl)c1)c1cc([N+](=O)[O-])cc([N+](=O)[O-])c1 [DNB3, N-(2-(3-chlorobenzyloxy)ethyl)-3,5-dinitrobenzamide] |  | 1.8 ± 0.1
